From patent US20100120858A1, “Piperidine Derivatives” (Pfizer Inc., priority 2006, published 2010)
pKi: −log10 of the molar value. Structures can show the parent of a compound that is named as a salt.

Tests used:
[1] = target: human serotonin transporter (Homo sapiens, UniProt P31645); test: Human serotonin (hSERT) receptor binding, [125I]-RTI-55; conditions: membranes of HEK-293 cells transfected with human serotonin transporter cDNA, IC50 converted by Cheng-Prusoff
Procedure: (§1) Cell pastes of HEK-293 cells transfected with a human serotonin transporter cDNA were prepared. The cell pastes were resuspended in 400 to 700 ml of Krebs-HEPES assay buffer (25 mM HEPES, 122 mM NaCl, 3 mM KCl, 1.2 mM MgSO4, 1.3 mM CaCl2, and 11 mM glucose, pH 7.4) with a Polytron homogenizer at Setting 7 for 30 seconds. Aliquots of membranes (˜2.5 mg/mL protein) were stored in liquid nitrogen until used.
Assays were set up in FlashPlates pre-coated with 0.1% polyethyleneimine (PEI) in a total volume of 250 μL containing: test compound (concentration 10^−5M to 10^−12M), cell membranes, and […] [^125I]-RTI-55 (Perkin Elmer, NEX-272; specific activity 2200 Ci/mmol). The reaction was incubated and gently agitated for 90 minutes at room temperature, and terminated by removal of assay volume. Plates were covered, and bound [^125I]-RTI-55 was determined using a Wallac Trilux Beta Plate Counter. Test compounds were run in duplicate, and specific binding was defined as the difference between binding in the presence and absence of 10 μM citalopram.
Excel and GraphPad Prism software were used for data calculation and analysis. IC50 values were converted to Ki values using the Cheng-Prusoff equation.

[2] = target: human norepinephrine transporter (Homo sapiens, UniProt P23975); test: Human norepinephrine (hNET) receptor binding, [125I]-RTI-55; conditions: membranes of HEK-293 cells transfected with human norepinephrine transporter cDNA; 50 pM [125I]-RTI-55; IC50 converted by Cheng-Prusoff
Procedure: as §1, with “human embryonic kidney 293 (HEK-293)” for “HEK-293”, “norepinephrine” for “serotonin”, “mL” for “ml”, “Krebs-N-2-hydroxyethylpiperazine-N′-2-ethanesulfonic acid (HEPES)” for “Krebs-HEPES”, “setting” for “Setting”, “(5” for “(˜2.5”
The binding assay was set up in Beckman deep-well polypropylene plates with a total volume of 250 μL containing: test compound (concentration of 10^−5M to 10^−12M), cell membranes, and 50 pM [^125I]-RTI-55 ([^125I]-3 beta-(4-iodophenyl)tropan-2 beta-carboxylic acid methyl ester) (Perkin Elmer, NEX-272; specific activity 2200 Ci/mmol). The reaction was incubated by gentle agitation for 90 minutes at room temperature and was terminated by filtration through Whatman GF/C filter plates using a Brandel 96-well plate harvester. Scintillation fluid (100 μL) was added to each well, and bound [^125I]-RTI-55 was determined using a Wallac Trilux Beta Plate Counter. Test compounds were run in duplicate, and specific binding was defined as the difference between binding in the presence and absence of 10 μM desipramine.
Excel and GraphPad Prism software were used for data calculation and analysis. IC50 values were converted to Ki values using the Cheng-Prusoff equation. The Ki values (nM) for the hNET are reported below in Table 13.

Chain of human norepinephrine transporter (P23975 whole entry): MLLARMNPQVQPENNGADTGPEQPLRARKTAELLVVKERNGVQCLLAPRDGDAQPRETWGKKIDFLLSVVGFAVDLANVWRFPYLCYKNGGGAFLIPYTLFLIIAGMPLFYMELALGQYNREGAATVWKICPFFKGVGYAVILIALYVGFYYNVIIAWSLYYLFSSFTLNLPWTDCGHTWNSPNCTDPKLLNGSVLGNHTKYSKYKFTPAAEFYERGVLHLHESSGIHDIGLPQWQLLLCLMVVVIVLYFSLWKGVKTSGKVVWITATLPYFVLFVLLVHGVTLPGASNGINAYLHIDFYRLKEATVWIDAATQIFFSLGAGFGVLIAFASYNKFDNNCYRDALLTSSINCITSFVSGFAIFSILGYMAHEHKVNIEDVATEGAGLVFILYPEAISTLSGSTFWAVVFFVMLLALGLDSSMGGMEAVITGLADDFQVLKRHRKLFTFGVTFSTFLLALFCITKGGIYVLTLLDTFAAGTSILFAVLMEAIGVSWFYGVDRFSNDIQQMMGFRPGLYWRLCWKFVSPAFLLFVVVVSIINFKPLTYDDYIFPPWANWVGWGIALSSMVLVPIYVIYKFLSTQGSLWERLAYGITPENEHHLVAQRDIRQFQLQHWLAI
Chain of human serotonin transporter (P31645 whole entry): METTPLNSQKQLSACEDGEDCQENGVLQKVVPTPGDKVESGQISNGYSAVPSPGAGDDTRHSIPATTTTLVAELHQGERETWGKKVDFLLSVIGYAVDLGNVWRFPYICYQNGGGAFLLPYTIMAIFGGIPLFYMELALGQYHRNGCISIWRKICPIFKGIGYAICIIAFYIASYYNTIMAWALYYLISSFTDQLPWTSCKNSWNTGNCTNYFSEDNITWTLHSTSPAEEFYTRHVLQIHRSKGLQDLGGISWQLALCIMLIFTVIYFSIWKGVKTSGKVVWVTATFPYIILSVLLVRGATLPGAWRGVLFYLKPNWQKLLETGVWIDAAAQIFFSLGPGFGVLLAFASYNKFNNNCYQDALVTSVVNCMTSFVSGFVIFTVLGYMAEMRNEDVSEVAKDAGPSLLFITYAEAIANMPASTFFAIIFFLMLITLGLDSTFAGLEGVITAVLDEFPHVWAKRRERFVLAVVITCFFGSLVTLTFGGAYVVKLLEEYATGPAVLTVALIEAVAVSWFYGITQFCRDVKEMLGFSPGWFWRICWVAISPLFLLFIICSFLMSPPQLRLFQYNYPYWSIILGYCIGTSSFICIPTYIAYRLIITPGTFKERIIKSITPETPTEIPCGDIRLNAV

Compound | pKi [1] | pKi [2]
COc1ccc(OC[C@H]2CCCNC2)c(Oc2ccc(Cl)cc2OC)c1 [Example 32, (S)-3-[2-(4-chloro-2-methoxy-phenoxy)-4-methoxy-phenoxymethyl]-piperidine fumaric acid] | 6.92 | 7.34
COc1cc(Cl)ccc1Oc1cc(Cl)ccc1OC[C@H]1CCCNC1 [Example 34, (S)-3-[4-chloro-2-(4-chloro-2-methoxy-phenoxy)-phenoxymethyl]-piperidine fumaric acid] | 7.68 | 7.80
COc1cc(Cl)ccc1Oc1cc(C(F)(F)F)ccc1OC[C@H]1CCCNC1 [Example 35, (S)-3-[2-(4-chloro-2-methoxy-phenoxy)-4-trifluoromethyl-phenoxymethyl]-piperidine fumaric acid] | 7.46 | 6.60
COc1cc(F)ccc1Oc1cc(C(F)(F)F)ccc1OC[C@H]1CCCNC1 [Example 37, (S)-3-[2-(4-fluoro-2-methoxy-phenoxy)-4-trifluoromethyl-phenoxymethyl]-piperidine fumaric acid] | 7.66 | 7.11
COc1ccc(Oc2ncccc2OC[C@H]2CCCNC2)cc1 [Example 51, (S)-2-(4-methoxy-phenoxy)-3-(piperidin-3-ylmethoxy)-pyridine fumaric acid] | 5.14 | 7.57
Cc1ccc(Oc2ncccc2OC[C@H]2CCCNC2)cc1 [Example 52, (S)-2-(4-methyl-phenoxy)-3-(piperidin-3-ylmethoxy)-pyridine fumaric acid] | 5.28 | 8.40
Fc1ccc(Oc2ncccc2OC[C@H]2CCCNC2)cc1 [Example 53, (S)-2-(4-fluoro-phenoxy)-3-(piperidin-3-ylmethoxy)-pyridine fumaric acid] | 5.15 | 8.52
N#Cc1ccc(Oc2ncccc2OC[C@H]2CCCNC2)cc1 [Example 57, (S)-4-[3-(piperidin-3-ylmethoxy)-pyridin-2-yloxy]-benzonitrile fumaric acid] | < 5.00 | 7.24
N#Cc1ccc(Oc2ncccc2OC[C@H]2CCCNC2)cc1C#N [Example 58, (S)-4-[3-(piperidin-3-ylmethoxy)-pyridin-2-yloxy]-phthalonitrile fumaric acid] | 5.40 | 5.92
N#Cc1ccc(Oc2ncccc2OC[C@H]2CCCNC2)cc1F [Example 61, (S)-2-fluoro-4-[3-(piperidin-3-ylmethoxy)-pyridin-2-yloxy]-benzonitrile fumaric acid] | < 5.00 | 6.85
COc1cc(C#N)ccc1Oc1ncccc1OC[C@H]1CCCNC1 [Example 62, (S)-3-methoxy-4-[3-(piperidin-3-ylmethoxy)-pyridin-2-yloxy]-benzonitrile fumaric acid] | < 5.00 | 7.17
Clc1ccc(Oc2ncccc2OC[C@H]2CCCNC2)cc1Cl [Example 64, (S)-2-(3,4-dichloro-phenoxy)-3-(piperidin-3-ylmethoxy)-pyridine fumaric acid] | 6.07 | 7.77
CCOc1ncccc1OC[C@H]1CCCNC1 [Example 79, (S)-2-ethoxy-3-(piperidin-3-ylmethoxy)-pyridine fumaric acid] | < 5.00 | 6.97
CC(C)Oc1ncccc1OC[C@H]1CCCNC1 [Example 80, (S)-2-isopropoxy-3-(piperidin-3-ylmethoxy)-pyridine fumaric acid] | < 5.00 | 6.99
c1cnc(OC2CCCCC2)c(OC[C@H]2CCCNC2)c1 [Example 81, (S)-2-cyclohexyloxy-3-(piperidin-3-ylmethoxy)-pyridine fumaric acid] | 5.21 | 7.08
CC[C@H](Oc1cccnc1Oc1ccccc1)[C@H]1CCCNC1 [Example 84, (S,S)-2-phenoxy-3-(1-piperidin-3-yl-propoxy)-pyridine fumaric acid] | 5.69 | 8.52
CC[C@H](Oc1cccnc1Oc1ccc(F)cc1)[C@H]1CCCNC1 [Example 85, (S,S)-2-(4-fluoro-phenoxy)-3-(1-piperidin-3-yl-propoxy)-pyridine fumaric acid] | 5.69 | 8.30
CCOc1ncccc1O[C@@H](CC)[C@H]1CCCNC1 [Example 86, (S,S)-2-ethoxy-3-(1-piperidin-3-yl-propoxy)-pyridine fumaric acid] | 6.15 | 7.89
CC[C@H](Oc1cccnc1OCC(C)C)[C@H]1CCCNC1 [Example 87, (S,S)-2-isobutoxy-3-(1-piperidin-3-yl-propoxy)-pyridine fumaric acid] | 6.46 | 8.15

Continued, values first:

pKi [1] | pKi [2] | Compound
7.44 | 7.49 | Fc1cc(Cl)ccc1Oc1cc(Cl)ccc1OC[C@H]1CCCNC1 [Example 33, (S)-3-[4-chloro-2-(4-chloro-2-fluoro-phenoxy)-phenoxymethyl]-piperidine fumaric acid]
6.96 | 6.08 | COc1cc(Cl)ccc1Oc1cc(F)ccc1OC[C@H]1CCCNC1 [Example 36, (S)-3-[2-(4-chloro-2-methoxy-phenoxy)-4-fluoro-phenoxymethyl]-piperidine fumaric acid]
5.72 | 8.44 | Fc1ccc(Oc2c(F)cccc2OC[C@H]2CCCNC2)c(Cl)c1 [Example 38, (S)-3-[2-(2-chloro-4-fluoro-phenoxy)-3-fluoro-phenoxymethyl]-piperidine fumaric acid]
6.96 | 6.10 | Fc1ccc(Oc2cc(F)ccc2OC[C@H]2CCCNC2)c(Cl)c1 [Example 39, (S)-3-[2-(2-chloro-4-fluoro-phenoxy)-4-fluoro-phenoxymethyl]-piperidine fumaric acid]
7.85 | 8.12 | COc1cccc(F)c1Oc1cc(Cl)ccc1OC[C@H]1CCCNC1 [Example 40, (S)-3-[4-chloro-2-(2-fluoro-6-methoxy-phenoxy)-phenoxymethyl]-piperidine fumaric acid]
6.68 | 8.42 | Cc1ccc(OC[C@H]2CCCNC2)c(Oc2ccc(F)cc2)n1 [Example 41, (S)-2-(4-fluoro-phenoxy)-6-methyl-3-(piperidin-3-ylmethoxy)-pyridine fumaric acid]
6.96 | 8.44 | Cc1ccc(OC[C@H]2CCCNC2)c(Oc2c(F)cccc2F)n1 [Example 42, (S)-2-(2,6-difluoro-phenoxy)-6-methyl-3-(piperidin-3-ylmethoxy)-pyridine hydrochloride]
< 5.04 | 7.98 | Cc1ccc(OC[C@H]2CCCNC2)c(Oc2c(Cl)cccc2Cl)n1 [Example 47, (S)-2-(2,6-dichloro-phenoxy)-6-methyl-3-(piperidin-3-ylmethoxy)-pyridine hydrochloride]
< 5.04 | 7.21 | Cc1ccc(OC[C@H]2CCCNC2)c(Oc2c(Cl)cc(F)cc2Cl)n1 [Example 48, (S)-2-(2,6-dichloro-4-fluoro-phenoxy)-6-methyl-3-(piperidin-3-ylmethoxy)-pyridine hydrochloride]
7.60 | 8.21 | Cc1ccc(OC[C@H]2CCCNC2)c(Oc2c(F)ccc(F)c2F)n1 [Example 49, (S)-6-methyl-3-(piperidin-3-ylmethoxy)-2-(2,3,6-trifluoro-phenoxy)-pyridine hydrochloride]
7.22 | 8.26 | Cc1ccc(OC[C@H]2CCCNC2)c(Oc2c(F)ccc(Cl)c2F)n1 [Example 50, (S)-2-(3-chloro-2,6-difluoro-phenoxy)-6-methyl-3-(piperidin-3-ylmethoxy)-pyridine hydrochloride]
5.57 | 8.52 | Fc1ccc(Oc2ncccc2OC[C@H]2CCCNC2)c(F)c1 [Example 54, (S)-2-(2,4-difluoro-phenoxy)-3-(piperidin-3-ylmethoxy)-pyridine fumaric acid]
< 5.00 | 7.77 | Clc1ccc(Oc2ncccc2OC[C@H]2CCCNC2)cc1 [Example 55, (S)-2-(4-chloro-phenoxy)-3-(piperidin-3-ylmethoxy)-pyridine fumaric acid]
